{"source": "paper PMC10456528", "about": "“Purification and Molecular Docking Study on the Angiotensin I-Converting Enzyme (ACE)-Inhibitory Peptide Isolated from Hydrolysates of the Deep-Sea Mussel Gigantidas vrijenhoeki” (Marine Drugs, 2023)", "note": "Ends that are not written are not given here. Peptide text beside a SMILES is read from it."}
{"target": "T1, angiotensin I-converting enzyme (ACE) (Homo sapiens, UniProt P12821)", "assay": "not given", "conditions": "not given", "units": {"IC50 of ACE inhibitory activity (enzyme activity, Dojindo ACE kit, synthetic peptide)": "nM"}}
{"molecule": "YALPHAL", "note": "[G. vrijenhoeki peptide (GVP)-11]", "IC50 of ACE inhibitory activity (enzyme activity, Dojindo ACE kit, synthetic peptide)": 795}
{"molecule": "LNSL", "note": "[G. vrijenhoeki peptide (GVP)-6]", "IC50 of ACE inhibitory activity (enzyme activity, Dojindo ACE kit, synthetic peptide)": 1390}
{"molecule": "PSLVG", "note": "[G. vrijenhoeki peptide (GVP)-5]", "IC50 of ACE inhibitory activity (enzyme activity, Dojindo ACE kit, synthetic peptide)": 582}
{"molecule": "KLLWNGKM", "note": "[G. vrijenhoeki peptide (GVP)-10]", "IC50 of ACE inhibitory activity (enzyme activity, Dojindo ACE kit, synthetic peptide)": 7}
{"molecule": "ALRPKF", "note": "[G. vrijenhoeki peptide (GVP)-7]", "IC50 of ACE inhibitory activity (enzyme activity, Dojindo ACE kit, synthetic peptide)": 24}
{"molecule": "PGLADMR", "note": "[G. vrijenhoeki peptide (GVP)-8]", "IC50 of ACE inhibitory activity (enzyme activity, Dojindo ACE kit, synthetic peptide)": 513}
{"molecule": "KLQE", "note": "[G. vrijenhoeki peptide (GVP)-1]", "IC50 of ACE inhibitory activity (enzyme activity, Dojindo ACE kit, synthetic peptide)": 2960}
{"molecule": "KVLH", "note": "[G. vrijenhoeki peptide (GVP)-2]", "IC50 of ACE inhibitory activity (enzyme activity, Dojindo ACE kit, synthetic peptide)": 162}
{"molecule": "KVHL", "note": "[G. vrijenhoeki peptide (GVP)-3]", "IC50 of ACE inhibitory activity (enzyme activity, Dojindo ACE kit, synthetic peptide)": 292}
{"target": "T1, angiotensin I-converting enzyme (ACE)", "assay": "ACE inhibitory activity assay (Dojindo ACE Kit)", "format": "biochemical", "parameters": "purchased Dojindo Laboratories, Kumamoto, Japan", "conditions": "synthetic peptides with the sequences identified in <1 kDa fraction; triplicate experiments", "description": "ACE inhibitory activity was measured using the Dojindo ACE Kit-WET kit (Dojindo Laboratories, Kumamoto, Japan), according to the manufacturer’s instructions. The ACE-inhibitory activity was calculated as follows: ACE inhibitory activity (%)=Acontrol−Asample/Acontrol−Ablank×100% where Acontrol is the absorbance of the positive control, Ablank is the absorbance of the blank containing distilled water, and Asample is the absorbance of the sample. The IC50 value was determined as the concentration of inhibitor required to inhibit 50% of the ACE activity.", "units": {"IC50": "nM"}}
{"molecule": "CC(C)C[C@H](NC(=O)[C@@H](N)CCCCN)C(=O)N[C@@H](CCC(N)=O)C(=O)N[C@@H](CCC(=O)O)C(=O)O", "note": "[GVP-1, KLQE] (H-KLQE-OH)", "IC50": "2960 ± 165"}
{"molecule": "CC(C)C[C@H](NC(=O)[C@@H](NC(=O)[C@@H](N)CCCCN)C(C)C)C(=O)N[C@@H](Cc1c[nH]cn1)C(=O)O", "note": "[GVP-2, KVLH] (H-KVLH-OH)", "IC50": "162 ± 2"}
{"molecule": "CC(C)C[C@H](NC(=O)[C@H](Cc1c[nH]cn1)NC(=O)[C@@H](NC(=O)[C@@H](N)CCCCN)C(C)C)C(=O)O", "note": "[GVP-3, KVHL] (H-KVHL-OH)", "IC50": "292 ± 13"}
{"molecule": "CC(C)C[C@H](N)C(=O)N[C@H](C(=O)N[C@@H](CCCNC(=N)N)C(=O)O)C(C)C", "note": "[GVP-4, LVR] (H-Leu-Val-Arg-OH; N-terminus and C-terminus assumed)", "IC50": "67 ± 5"}
{"molecule": "CC(C)C[C@H](NC(=O)[C@H](CO)NC(=O)[C@H](CC(N)=O)NC(=O)[C@@H](N)CC(C)C)C(=O)O", "note": "[GVP-6, LNSL] (H-LNSL-OH; N-terminus and C-terminus assumed)", "IC50": "1390 ± 11"}
{"molecule": "CC(C)C[C@H](NC(=O)[C@@H](N)CC(C)C)C(=O)N[C@@H](CCCNC(=N)N)C(=O)O", "note": "[GVP-9, LLR]", "IC50": "435 ± 7"}
{"molecule": "ALRPKF [GVP-7, ALRPKF]", "IC50": "24 ± 17"}
{"molecule": "KLLWNGKM [GVP-10, KLLWNGKM]", "IC50": "7 ± 2"}
{"molecule": "PGLADMR [GVP-8, PGLADMR]", "IC50": "513 ± 2"}
{"molecule": "PSLVG [GVP-5, PSLVG]", "IC50": "582 ± 8"}
{"molecule": "YALPHAL [GVP-11, YALPHAL]", "IC50": "795 ± 15"}
